Test results reported in PMC12562379, “Facile Synthesis of N-vinylindoles via Knoevenagel Condensation: Molecular Features and Biological Activities” (International Journal of Molecular Sciences, 2025).
Values after ≈ are worked out from the molar mass of the structure shown. Like-named read-outs stand apart in the source and are kept apart here.

Experiments:
[1] = test system: S. aureus ATCC 6535, S. aureus MRSA 12673 and other tested bacterial and yeast strains; assay: Microbroth dilution assay, ranges stated over several strains; format: cell-based; conditions: range over S. aureus ATCC 6535 and MRSA 12673
C. albicans ATCC 10231 = assay: Microbroth dilution assay; format: cell-based, Candida albicans
Experimental: (§1) The minimum inhibitory concentration (MIC) and minimum bactericidal/fungicidal concentration (MBC/MFC) of the tested compounds were determined by the microbroth dilution technique using 96-well plates based on the methodology described in the EUCAST (European Committee on Antimicrobial Susceptibility Testing) standards. Reference and clinical strains of Gram-positive (Staphylococcus aureus ATCC 6538, Staphylococuccus aureus MRSA 6347) and Gram-negative (Escherichia coli ATCC 8739) bacteria, and yeast (Candida albicans ATCC 10231, Candida glabrata ATCC 2001) were used for the assay. The studies were carried out in the Mueller–Hinton (MH) broth for bacteria and RPMI 1640 broth + MOPS (Sigma-Aldrich, Poland) buffer in the case of yeast. The dry test samples were dissolved in DMSO (dimethyl sulfoxide), resulting in a final concentration of 15 mg/mL, and then diluted in a geometric progression. Ampicillin (Sigma-Aldrich, Poland) acted as a control sample (512 to 4 µg/mL) for bacteria and ketoconazole (128 to 1 µg/mL) (Sigma-Aldrich, Poland) acted as a control sample for yeast. The cultures of microorganisms were prepared by transferring cells from the stock cultures to tubes with the appropriate broth and incubated with agitation in an aerobic atmosphere for 18 ± 2 h at 35 ± 1 °C; next, they were diluted to achieve an optical density corresponding to 5 × 105 (bacteria) or 2 × 105 (yeast) colony-forming units per mL (cfu/mL). An appropriate media (96 µL), along with the tested compounds with a final concentration range of 300–3.1 µg/mL (4 µL) and next microbial suspension (100 µL) were added to each well. Plates with samples were incubated in adequate conditions described above and microbial growth was assessed. […] (>90%; ketoconazole) but 50% (for other compounds) inhibits visible growth of yeasts. Next, as a control of microbial viability, 100 µL of the samples from each well without growth was inoculated on the MH or RPMI agar plates and incubated for 18 ± 2 h at 35 ± 1 °C and finally, the CFU was counted. The MBC/MFC was determined as the minimum concentration of compounds required to kill 99.9% the organisms.

E. coli ATCC 8739 = assay: Microbroth dilution assay; format: cell-based; conditions: Escherichia coli, ATCC8739, E. coli ATCC 8739
Experimental: as §1

HaCaT = assay: MTT assay, cytotoxic activity on non-cancerous keratinocytes; format: cell-based; conditions: Homo sapiens, 24 h, n = 12
Experimental: (§2) The human ovarian SKOV-3, gastric adenocarcinoma AGS, cervical HeLa cell lines and non-cancerous keratinocytes HaCaT were obtained from the American Type Culture Collection (ATCC, Manassas, VA, USA). The cell lines were cultured in McCoy’s Medium, Dulbecco’s Modified Eagle’s Medium/F12, and DMEM, respectively (Merck Millipore, Burlington, MA, USA). Penicillin (100 units/mL), streptomycin ([…]), and 10% (v/v) fetal bovine serum (FBS) were added to all the media. The cells were incubated at 37 °C and 5% CO2.
(§3) To estimate the cytotoxic activity of the obtained compounds 2a-i, MTT assay was used. The cells (5 × 10^3 cells/well) were treated with the compounds in a range of concentrations 1–150 µg/mL. […] After 24 h, MTT solution (0.5 mg/mL) was added to the cells. Formazan crystals were dissolved in DMSO and the absorbance was measured with a microtiter plate reader (Epoch, BioTek Instruments, Winooski, VT, USA).

S. aureus ATCC 6535 = assay: Microbroth dilution assay; format: cell-based; conditions: Staphylococcus aureus, ATCC6535
SKOV-3 cells = assay: Caspase-3/7 assay (apoptosis, Muse Cell Analyzer); format: cell-based, human; conditions: SKOV-3, 24 h
Experimental: The SKOV-3 cells (5 × 10^5 cells/well) were seeded and incubated with compound 2i at concentrations of 2, 5, 10, 15, 30, and 60 µg/mL for 24 h. Then, the cells were stained with Muse Caspase-3/7 Kit, according to the manufacturer’s instructions. Muse Cell Analyzer and Muse 1.4 Analysis Software (Merck Millipore, Burlington, MA, USA) were used to calculate the amount of live, early apoptotic, late apoptotic, and dead cells. The results are shown as a percentage of the cells in each population obtained from two independently repeated experiments (in three repeats).

C. glabrata ATCC 2001 = assay: Microbroth dilution assay; format: cell-based, Candida glabrata; conditions: Nakaseomyces glabratus, ATCC2001
Experimental: as §1

[2] = test system: HeLa, SKOV-3, AGS (and HaCaT) cell lines; assay: MTT assay, ranges stated over several cell lines; format: cell-based, human; conditions: for IC50: Homo sapiens
Experimental: as §2, §3

AGS = assay: MTT assay, cytotoxic activity; format: cell-based, human; conditions: Homo sapiens, 24 h, n = 12
Experimental: as §2, §3

SKOV-3 = assay: MTT assay, cytotoxic activity; format: cell-based, human; conditions: Homo sapiens, SK-OV-3; SKOV-3, MTT, 24 h, n = 12
Experimental: as §2, §3

HeLa = assay: MTT assay, cytotoxic activity; format: cell-based, human; conditions: Homo sapiens, 24 h, n = 12
Experimental: as §2, §3

[3] = range over the cancer cell lines HeLa, SKOV-3 and AGS

C(=C(\C1=NCCN1)n1ccc2ccccc21)/c1ccc2ccccc2c1 [Compound 2i, (Z)-1-[1-(4,5-dihydro-1H-imidazol-2-yl)-2-(naphthalen-2-yl)vinyl]-1H-indole]
MBC (range over strains) [1]: 30 µg/mL (≈ 88.9 µM) | MIC (range over strains) [1]: 15 to 30 µg/mL | MFC (C. albicans ATCC 10231; C. albicans ATCC 10231): 120 µg/mL (≈ 356 µM) | MIC (C. albicans ATCC 10231; C. albicans ATCC 10231): 120 µg/mL (≈ 356 µM) | MFC (C. albicans ATCC 10231; Candida albicans, ATCC10231, C. albicans ATCC 10231, read-out: MFC): 60 µg/mL (≈ 178 µM) | MIC (C. albicans ATCC 10231; Candida albicans, ATCC10231, C. albicans ATCC 10231, read-out: MIC): 60 µg/mL (≈ 178 µM) | MBC (E. coli ATCC 8739): > 240 µg/mL | MIC (E. coli ATCC 8739; read-out: MIC): > 240 µg/mL | IC50 (HaCaT): 3.02 ± 0.18 µg/mL (≈ 8.95 µM) | MBC (S. aureus ATCC 6535): 30 µg/mL (≈ 88.9 µM) | MIC (S. aureus ATCC 6535): 15 µg/mL (≈ 44.5 µM) | dead cells (SKOV-3 cells; 2 µg/mL): 6.07 ± 0.58% | late apoptotic cells (SKOV-3 cells; 2 µg/mL): 11.52 ± 1.53% | dead cells (SKOV-3 cells; 5 µg/mL): 7.65 ± 0.61% | late apoptotic cells (SKOV-3 cells; 5 µg/mL): 22.72 ± 1.37% | dead cells (SKOV-3 cells; 10 µg/mL): 18.11 ± 1.45% | late apoptotic cells (SKOV-3 cells; 10 µg/mL): 48.85 ± 0.39% | dead cells (SKOV-3 cells; 15 µg/mL): 31.52 ± 2.68% | late apoptotic cells (SKOV-3 cells; 15 µg/mL): 54.94 ± 3.12% | dead cells (SKOV-3 cells; 30 µg/mL): 68.95 ± 2.09% | late apoptotic cells (SKOV-3 cells; 30 µg/mL): 28.21 ± 1.61% | dead cells (SKOV-3 cells; 60 µg/mL): 66.85 ± 1.96% | late apoptotic cells (SKOV-3 cells; 60 µg/mL): 31.87 ± 2.01% | induction of apoptosis (SKOV-3 cells; from 2 µg/mL to 60 µg/mL): significantly induced apoptosis | MFC (C. glabrata ATCC 2001): 60 µg/mL (≈ 178 µM) | MIC (C. glabrata ATCC 2001): 60 µg/mL (≈ 178 µM) | IC50 ([2]; range over HeLa and SKOV-3 cell lines): 2.03 to 2.45 µg/mL (≈ 6.02 to 7.26 µM) | IC50 [2, 3]: 2.03 to 5.68 µg/mL (≈ 6.02 to 16.8 µM) | IC50 (range over cell lines) [2, 3]: 2.03 to 5.58 µg/mL | IC50 (AGS): 5.68 ± 0.41 µg/mL (≈ 16.8 µM) | IC50 (SKOV-3): 2.45 ± 0.13 µg/mL (≈ 7.26 µM) | IC50 (HeLa): 2.03 ± 0.05 µg/mL (≈ 6.02 µM)
